From ChEMBL document CHEMBL1137358, “Synthetic inhibitors of cytochrome P-450 2A6: inhibitory activity, difference spectra, mechanism of inhibition, and protein cocrystallization” (J Med Chem, 2006)
pKi: −log10 of the molar value.

Assays:
Cytochrome P450 2C9 = Cytochrome P450 2C9 (Homo sapiens, UniProt P11712); assay: Inhibition of human CYP2C9
Cytochrome P450 2E1 = Cytochrome P450 2E1 (Homo sapiens, UniProt P05181); assay: Inhibition of human CYP2E1
CYP2A6 over CYP2B6 = assay: Selectivity for CYP2A6 over CYP2B6
[1] = (§1) Stability in human liver microsome
Cytochrome P450 3A4 = Cytochrome P450 3A4 (Homo sapiens, UniProt P08684); assay: Inhibition of human CYP3A4
Cytochrome P450 3A4, sequence (P08684 whole entry): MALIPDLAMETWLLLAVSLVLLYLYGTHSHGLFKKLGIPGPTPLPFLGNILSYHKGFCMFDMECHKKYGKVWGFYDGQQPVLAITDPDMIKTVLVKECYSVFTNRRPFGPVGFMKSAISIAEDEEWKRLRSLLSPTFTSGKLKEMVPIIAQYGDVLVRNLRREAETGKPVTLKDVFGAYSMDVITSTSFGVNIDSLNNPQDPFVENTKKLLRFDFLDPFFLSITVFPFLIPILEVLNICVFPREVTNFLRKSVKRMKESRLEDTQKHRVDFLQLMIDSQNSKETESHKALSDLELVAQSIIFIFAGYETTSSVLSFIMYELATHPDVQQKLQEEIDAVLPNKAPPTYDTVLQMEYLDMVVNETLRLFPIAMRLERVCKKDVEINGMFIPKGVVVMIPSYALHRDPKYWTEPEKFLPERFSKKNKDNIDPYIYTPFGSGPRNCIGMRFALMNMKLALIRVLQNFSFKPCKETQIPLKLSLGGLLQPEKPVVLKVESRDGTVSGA

CYP2A6 over CYP3A4 = assay: Selectivity for CYP2A6 over CYP3A4; settings: human
CYP2A6 over CYP2E1 = assay: Selectivity for CYP2A6 over CYP2E1; settings: human
Cytochrome P450 2A6 = target: T1, Cytochrome P450 2A6 (Homo sapiens, UniProt P11509); assay: Inhibition of human CYP2A6
T1 sequence (P11509 whole entry): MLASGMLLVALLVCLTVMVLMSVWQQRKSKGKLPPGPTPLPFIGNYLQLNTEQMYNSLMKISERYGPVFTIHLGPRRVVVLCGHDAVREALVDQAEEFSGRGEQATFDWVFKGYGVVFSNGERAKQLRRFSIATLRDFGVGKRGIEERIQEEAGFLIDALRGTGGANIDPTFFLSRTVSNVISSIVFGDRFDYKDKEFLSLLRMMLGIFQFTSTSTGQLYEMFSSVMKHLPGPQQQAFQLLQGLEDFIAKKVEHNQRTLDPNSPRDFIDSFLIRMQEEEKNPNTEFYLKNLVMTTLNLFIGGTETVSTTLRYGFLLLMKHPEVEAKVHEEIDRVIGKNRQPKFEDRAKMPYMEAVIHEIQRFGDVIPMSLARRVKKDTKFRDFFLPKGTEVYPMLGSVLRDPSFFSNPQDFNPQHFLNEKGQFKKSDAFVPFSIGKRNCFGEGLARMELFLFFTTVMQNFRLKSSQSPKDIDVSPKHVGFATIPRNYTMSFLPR

CYP2A6 over CYP2C19 = assay: Selectivity for CYP2A6 over CYP2C19; settings: human
Cytochrome P450 2C19 = Cytochrome P450 2C19 (Homo sapiens, UniProt P33261); assay: Inhibition of human CYP2C19
Cytochrome P450 2C19, sequence (P33261 whole entry): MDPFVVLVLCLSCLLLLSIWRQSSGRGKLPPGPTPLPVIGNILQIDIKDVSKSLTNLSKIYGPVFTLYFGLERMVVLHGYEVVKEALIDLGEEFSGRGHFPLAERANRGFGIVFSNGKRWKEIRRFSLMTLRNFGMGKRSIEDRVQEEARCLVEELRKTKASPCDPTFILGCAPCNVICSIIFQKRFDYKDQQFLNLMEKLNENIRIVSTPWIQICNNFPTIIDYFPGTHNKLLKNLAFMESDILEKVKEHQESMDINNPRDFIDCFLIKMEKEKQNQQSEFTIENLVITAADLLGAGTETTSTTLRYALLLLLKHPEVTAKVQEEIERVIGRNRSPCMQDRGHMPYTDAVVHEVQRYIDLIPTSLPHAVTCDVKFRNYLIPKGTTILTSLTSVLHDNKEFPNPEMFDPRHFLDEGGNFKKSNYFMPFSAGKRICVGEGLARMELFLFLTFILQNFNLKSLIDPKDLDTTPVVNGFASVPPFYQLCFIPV

Cytochrome P450 2B6 = target: T2, Cytochrome P450 2B6 (Homo sapiens, UniProt P20813); assay: Inhibition of human CYP2B6
T2 sequence (P20813 whole entry): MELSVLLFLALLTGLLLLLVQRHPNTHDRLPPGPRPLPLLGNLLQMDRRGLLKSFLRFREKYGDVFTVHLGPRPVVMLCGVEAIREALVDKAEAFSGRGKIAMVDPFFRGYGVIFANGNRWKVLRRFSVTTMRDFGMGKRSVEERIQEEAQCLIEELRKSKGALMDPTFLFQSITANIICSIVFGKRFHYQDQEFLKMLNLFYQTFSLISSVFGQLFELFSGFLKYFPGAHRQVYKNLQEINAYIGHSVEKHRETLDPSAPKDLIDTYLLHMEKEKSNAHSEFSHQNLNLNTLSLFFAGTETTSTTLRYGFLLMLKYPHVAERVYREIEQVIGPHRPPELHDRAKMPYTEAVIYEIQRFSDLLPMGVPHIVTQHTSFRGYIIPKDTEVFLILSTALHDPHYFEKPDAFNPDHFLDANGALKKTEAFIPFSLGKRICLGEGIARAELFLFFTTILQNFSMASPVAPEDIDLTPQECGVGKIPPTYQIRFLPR

Cytochrome P450 2D6 = Cytochrome P450 2D6 (Homo sapiens, UniProt P10635); assay: Inhibition of human CYP2D6
Cytochrome P450 2D6, sequence (P10635 whole entry): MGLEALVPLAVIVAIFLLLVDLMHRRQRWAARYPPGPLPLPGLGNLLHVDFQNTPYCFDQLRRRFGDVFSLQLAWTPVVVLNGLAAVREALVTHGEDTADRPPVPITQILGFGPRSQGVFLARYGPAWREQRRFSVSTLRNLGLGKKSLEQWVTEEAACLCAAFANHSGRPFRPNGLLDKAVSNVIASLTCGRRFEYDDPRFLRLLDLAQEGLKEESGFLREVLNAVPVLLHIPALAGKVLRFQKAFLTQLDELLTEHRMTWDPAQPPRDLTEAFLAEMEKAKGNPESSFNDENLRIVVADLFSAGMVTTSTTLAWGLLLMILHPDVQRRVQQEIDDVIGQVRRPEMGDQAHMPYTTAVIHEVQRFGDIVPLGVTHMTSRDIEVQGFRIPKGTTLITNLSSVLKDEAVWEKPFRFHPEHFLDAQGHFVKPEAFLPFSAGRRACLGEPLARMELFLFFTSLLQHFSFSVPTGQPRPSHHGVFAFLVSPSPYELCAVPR

[2] = (§2) Stability in mouse liver microsome
CYP2A6 over CYP2C9 = assay: Selectivity for CYP2A6 over CYP2C9; settings: human
CYP2A6 over CYP2D6 = assay: Selectivity for CYP2A6 over CYP2D6; settings: human
Mus musculus = species on record: Mus musculus; assay: as §2; settings: microsomes
Liver microsomes = assay: as §1; settings: microsomes

Cytochrome P450 2E1, sequence (P05181 whole entry): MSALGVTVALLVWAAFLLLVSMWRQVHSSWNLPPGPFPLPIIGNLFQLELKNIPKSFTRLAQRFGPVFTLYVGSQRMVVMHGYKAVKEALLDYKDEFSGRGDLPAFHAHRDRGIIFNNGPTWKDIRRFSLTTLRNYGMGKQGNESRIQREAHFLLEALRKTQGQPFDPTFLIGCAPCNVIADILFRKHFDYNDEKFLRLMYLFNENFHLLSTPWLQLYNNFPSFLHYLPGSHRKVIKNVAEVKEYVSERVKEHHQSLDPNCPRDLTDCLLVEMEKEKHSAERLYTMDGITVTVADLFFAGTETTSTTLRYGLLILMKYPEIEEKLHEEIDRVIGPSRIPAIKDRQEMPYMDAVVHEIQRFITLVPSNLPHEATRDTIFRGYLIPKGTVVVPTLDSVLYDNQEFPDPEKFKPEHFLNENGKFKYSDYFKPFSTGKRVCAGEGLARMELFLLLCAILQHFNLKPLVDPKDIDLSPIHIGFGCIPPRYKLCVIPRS
Cytochrome P450 2C9, sequence (P11712 whole entry): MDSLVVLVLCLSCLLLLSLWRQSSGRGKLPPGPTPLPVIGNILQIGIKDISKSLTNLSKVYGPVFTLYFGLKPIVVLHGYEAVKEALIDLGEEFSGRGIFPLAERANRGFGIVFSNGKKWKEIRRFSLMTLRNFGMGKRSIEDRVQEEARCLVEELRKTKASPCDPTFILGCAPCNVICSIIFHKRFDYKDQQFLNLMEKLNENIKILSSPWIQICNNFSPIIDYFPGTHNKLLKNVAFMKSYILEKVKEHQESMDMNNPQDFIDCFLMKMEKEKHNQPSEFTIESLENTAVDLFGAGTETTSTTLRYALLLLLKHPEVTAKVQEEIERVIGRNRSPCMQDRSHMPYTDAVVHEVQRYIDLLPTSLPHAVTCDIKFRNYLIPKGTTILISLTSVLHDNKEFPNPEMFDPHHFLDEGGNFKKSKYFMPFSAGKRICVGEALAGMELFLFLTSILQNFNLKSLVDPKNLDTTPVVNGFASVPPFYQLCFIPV

Row | SMILES | pKi (Cytochrome P450 2C9) | pKi (Cytochrome P450 2E1) | half-life ([1]; liver microsomes) | pKi (Cytochrome P450 3A4) | pKi (Cytochrome P450 2A6) | pKi (Cytochrome P450 2C19) | pKi (Cytochrome P450 2B6) | pKi (Cytochrome P450 2D6) | half-life ([2]; liver microsomes) | Stability (Mus musculus) | T1/2 (Liver microsomes) | half-life ([1]; microsomes) | half-life ([2]; microsomes) | selectivity ratio (CYP2A6 over CYP2B6) | selectivity ratio (CYP2A6 over CYP3A4) | selectivity ratio (CYP2A6 over CYP2E1) | selectivity ratio (CYP2A6 over CYP2C19) | selectivity ratio (CYP2A6 over CYP2C9) | selectivity ratio (CYP2A6 over CYP2D6)
1 | CNCC#Cc1cccnc1 | 5.20 | 3.93 | 2.27 h | 3.60 | 5.57 | 4.79 | 4.22 | < 3.40 | 2.05 h | – | – | – | – | 22.2 | 92.8 | 43.1 | 6.1 | 2.3 | > 74
2 | NCc1ccc(-c2cccnc2)o1 | 5.23 | 4.07 | 0.617 h | 4.63 | – | 4.96 | 4.02 | 5.24 | 0.617 h | – | – | – | – | – | – | – | 81 | 43 | 42
3 | c1cncc(-c2c[nH]cn2)c1 | 4.68 | 4.89 | 11.7 h | 4.15 | 6.10 | 4.57 | 4.29 | 4.00 | 11.6 h | – | – | – | – | 69 | 93 | 17 | 35 | 28 | 133
4 | Cc1ccsc1-c1cccnc1 | – | – | 0.533 h | – | – | – | – | – | 0.683 h | – | – | – | – | – | – | – | – | – | –
5 | Cc1cscc1-c1cccnc1 | 4.21 | 5.51 | – | > 4.60 | 6.05 | 4.90 | 5.51 | 4.02 | 0.783 h | – | 0.533 h | – | – | – | – | – | – | – | –
6 | NCc1cc(-c2cccnc2)no1 | 4.84 | 4.41 | 6.68 h | < 3.40 | 6.40 | 4.56 | 4.47 | < 3.40 | 6.42 h | – | – | – | – | 91.1 | > 541 | 105 | 74.3 | 39.1 | > 541
7 | c1cncc(-c2cc[nH]n2)c1 | 3.76 | 5.28 | 1.65 h | < 3.40 | 4.89 | 3.96 | 4.15 | 3.78 | 1.55 h | – | – | – | – | 5.6 | > 15.6 | 0.4 | 8.5 | 13.4 | 12.9
8 | NCc1cc(-c2cccnc2)n[nH]1 | 4.62 | < 3.40 | 3.97 h | < 3.40 | 6.52 | 4.38 | 4.48 | 4.53 | 2.82 h | – | – | – | – | 114 | > 690 | > 690 | 143 | 83.4 | 103
9 | Cc1csc(-c2cccnc2)n1 | 4.29 | 5.02 | – | 4.64 | 5.39 | < 3.40 | 4.36 | < 3.40 | – | – | – | 0.6 h | 0.817 h | 10.6 | 5.6 | 2.3 | > 32.3 | 12.6 | > 32.3

Now from value to molecule, other results behind:

Row | pKi (Cytochrome P450 2C9) | pKi (Cytochrome P450 2E1) | half-life ([1]; liver microsomes) | pKi (Cytochrome P450 3A4) | pKi (Cytochrome P450 2A6) | pKi (Cytochrome P450 2C19) | pKi (Cytochrome P450 2B6) | pKi (Cytochrome P450 2D6) | half-life ([2]; liver microsomes) | Stability (Mus musculus) | T1/2 (Liver microsomes) | half-life ([1]; microsomes) | half-life ([2]; microsomes) | SMILES | selectivity ratio (CYP2A6 over CYP2B6) | selectivity ratio (CYP2A6 over CYP3A4) | selectivity ratio (CYP2A6 over CYP2E1) | selectivity ratio (CYP2A6 over CYP2C19) | selectivity ratio (CYP2A6 over CYP2C9) | selectivity ratio (CYP2A6 over CYP2D6)
10 | 4.42 | < 3.40 | 1.1 h | < 3.40 | 6.10 | 4.82 | 3.75 | 4.34 | – | Stable | – | – | – | CNCc1ccc(-c2cccnc2)o1 | – | > 250 | > 250 | 19 | 48 | 57
11 | < 3.40 | 3.74 | 1.4 h | 4.71 | 6.22 | 4.68 | 5.23 | < 3.40 | – | Stable | – | – | – | Cc1ccsc1-c1ccc(F)nc1 | 9.1 | 5.9 | 285 | 32 | > 310 | > 310
12 | 6.05 | 6.10 | – | 4.20 | 6.22 | 4.39 | 5.42 | 4.83 | – | – | – | 0.617 h | 0.367 h | NCc1ccc(-c2ccccc2)o1 | 6.4 | 105 | 1.3 | 6.8 | 1.5 | 24.6
13 | 4.85 | 6.10 | – | 5.13 | 6.10 | 5.15 | 4.33 | 4.19 | – | – | – | 0.983 h | 0.633 h | CSCc1ccc(-c2cccnc2)o1 | 59 | 9.2 | 0.9 | 8.8 | 18 | 81
14 | 6.30 | 7.40 | – | 4.02 | 6.22 | 6.05 | 6.22 | < 3.40 | – | – | – | 1.4 h | 0.683 h | NCc1ccc(-c2ccccc2)s1 | 1.1 | 159 | 0.1 | 1.4 | 0.8 | > 333
15 | < 3.40 | < 3.40 | – | < 3.40 | 5.21 | < 3.40 | 5.29 | < 3.40 | – | – | – | 1.23 h | 0.617 h | Cc1cscc1-c1ccccc1 | 4.2 | > 400 | 2.9 | 32.3 | 33.9 | 60.6
16 | – | 4.70 | – | 4.53 | – | – | – | 4.07 | – | – | – | 0.65 h | 1 h | NCc1ccc(-c2cccnc2)s1 | – | – | – | – | – | –
17 | 3.95 | < 3.40 | – | 3.83 | – | 4.10 | < 3.40 | 3.90 | – | Stable | – | – | – | CN(C)Cc1ccc(-c2cccnc2)o1 | – | – | – | – | – | –
18 | 4.32 | < 3.40 | 4.52 h | 4.55 | 6.15 | 4.25 | 4.52 | 3.91 | – | Stable | – | – | – | c1cncc(-c2ccsc2)c1 | 42 | 40 | > 286 | 81 | 69 | > 286
19 | – | – | 2.22 h | – | – | – | – | – | – | Stable | – | – | – | Cc1nccn1-c1cccnc1 | – | – | – | – | – | –
20 | 4.47 | < 3.40 | 1.6 h | < 3.40 | 6.22 | 4.52 | < 3.40 | 4.25 | – | Stable | – | – | – | CNCc1ccc(-c2cccnc2)s1 | – | – | – | – | – | –
21 | 3.95 | 5.01 | 5.25 h | < 3.40 | 5.48 | 3.97 | 4.85 | < 3.40 | 1.53 h | – | – | – | – | c1ccc(-c2ccsc2)cc1 | 0.8 | > 32.3 | > 32.3 | > 32.3 | > 32.3 | > 32.3
